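Cultured in 96-well plates, cells were exposed to test compound for 48 hours across five concentrations. Here, GI50 denotes the concentration required for 50% inhibition of growth. TGI marks complete inhibition of growth.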
Tests used:
Test in all cases: inhibition of tumour cell growth, NCI panel, 48 h
[1] = system: HOP-92 NSCLC
[2] = system: NCI/ADR-RES ovarian
[3] = system: SK-MEL-28 melanoma
[4] = system: T-47D breast
[5] = system: OVCAR-8 ovarian
[6] = system: SR leukemia
[7] = system: SW-620 colon
[8] = system: CAKI-1 renal
[9] = system: HOP-62 NSCLC
[10] = system: A549 NSCLC
[11] = system: HT29 colon
[12] = system: NCI-H522 lung
[13] = system: UACC-257 melanoma
[14] = system: A498 renal
[15] = system: MOLT-4 leukemia
[16] = system: SK-OV-3 ovarian
[17] = system: MDA-MB-231 breast
[18] = system: TK-10 renal
[19] = system: UO-31 renal
[20] = system: KM12 colon
[21] = system: SF-539 CNS
[22] = system: SNB-19 CNS
[23] = system: HL-60(TB) leukemia
[24] = system: PC-3 prostate
[25] = system: SK-MEL-2 melanoma
[26] = system: SF-295 CNS
[27] = system: ACHN renal
[28] = system: OVCAR-4 ovarian
[29] = system: HCC-2998 colon
[30] = system: UACC-62 melanoma
[31] = system: NCI-H226 lung
[32] = system: RXF 393 renal
[33] = system: OVCAR-3 ovarian
[34] = system: HCT-116 colon
[35] = system: SNB-75 CNS
[36] = system: SN12C renal
[37] = system: OVCAR-5 ovarian
[38] = system: K-562 leukemia
[39] = system: MALME-3M melanoma
[40] = system: SK-MEL-5 melanoma
[41] = system: HS 578T breast
[42] = system: M14 melanoma
[43] = system: COLO 205 colon
[44] = system: EKVX NSCLC
[45] = system: NCI-H460 lung
[46] = system: HCT-15 colon
[47] = system: RPMI-8226 leukemia
[48] = system: DU-145 prostate
[49] = system: MDA-MB-435
[50] = system: SF-268 CNS
[51] = system: NCI-H23 lung
[52] = system: BT-549 breast
[53] = system: 786-0 renal
[54] = system: CCRF-CEM leukemia
[55] = system: U251 CNS
[56] = system: IGROV1 ovarian
[57] = system: MCF7 breast

Which GI50 [1] does the source give for `COc1cc(/C=C/C(=O)c2cc(OC)c(OC)c(OC)c2)ccc1OCc1ccc(F)cc1` here?
The GI50 was 2.15 µM.

And the TGI [1]?
The TGI was 8.99 µM.

What about the GI50 [2] of the same molecule?
The GI50 was 4.2 µM.

What about the TGI [2] of the same molecule?
The TGI was > 100 µM.

And the GI50 [3]?
Its GI50 is 6.52 µM.

What about the TGI [3] of the same molecule?
The TGI was > 100 µM.

And the GI50 [4]?
Its GI50 is 3.22 µM.

What about the TGI [4] of the same molecule?
Its TGI is > 100 µM.

What about the GI50 [5] of the same molecule?
Its GI50 is 2.88 µM.

And the TGI [5]?
Its TGI is 16.6 µM.

And the GI50 [6]?
The GI50 was 1.73 µM.

And the TGI [6]?
The TGI was > 100 µM.

And the GI50 [7]?
The GI50 was 4.31 µM.

And the TGI [7]?
The TGI was > 100 µM.

And the GI50 [8]?
The GI50 was 4.35 µM.

What about the TGI [8] of the same molecule?
Its TGI is > 100 µM.

And the GI50 [9]?
Its GI50 is 3.64 µM.

And the TGI [9]?
The TGI was 37.6 µM.

What about the GI50 [10] of the same molecule?
The GI50 was 3.11 µM.

And the TGI [10]?
The TGI was > 100 µM.

What about the GI50 [11] of the same molecule?
Its GI50 is 3.43 µM.

And the TGI [11]?
The TGI was > 100 µM.

What about the GI50 [12] of the same molecule?
Its GI50 is 2.31 µM.

And the TGI [12]?
Its TGI is 15.5 µM.

What about the GI50 [13] of the same molecule?
The GI50 was 3.82 µM.

And the TGI [13]?
Its TGI is > 100 µM.

And the GI50 [14]?
Its GI50 is 48 µM.

What about the TGI [14] of the same molecule?
The TGI was > 100 µM.

What about the GI50 [15] of the same molecule?
Its GI50 is 3.14 µM.

What about the TGI [15] of the same molecule?
The TGI was > 100 µM.

And the GI50 [16]?
Its GI50 is 3.61 µM.

What about the TGI [16] of the same molecule?
Its TGI is 54.6 µM.

What about the GI50 [17] of the same molecule?
Its GI50 is 2.96 µM.

What about the TGI [17] of the same molecule?
Its TGI is 24.6 µM.

What about the GI50 [18] of the same molecule?
The GI50 was 16.6 µM.

And the TGI [18]?
The TGI was > 100 µM.

What about the GI50 [19] of the same molecule?
The GI50 was 3.88 µM.

What about the TGI [19] of the same molecule?
The TGI was > 100 µM.

What about the GI50 [20] of the same molecule?
The GI50 was 4.95 µM.

What about the TGI [20] of the same molecule?
The TGI was > 100 µM.

And the GI50 [21]?
The GI50 was 2.12 µM.

What about the TGI [21] of the same molecule?
The TGI was 5.13 µM.

And the GI50 [22]?
Its GI50 is 4 µM.

What about the TGI [22] of the same molecule?
The TGI was > 100 µM.

What about the GI50 [23] of the same molecule?
The GI50 was 2.73 µM.

And the TGI [23]?
Its TGI is > 100 µM.

What about the GI50 [24] of the same molecule?
The GI50 was 3.67 µM.

And the TGI [24]?
Its TGI is > 100 µM.

And the GI50 [25]?
Its GI50 is 8.57 µM.

And the TGI [25]?
The TGI was 64.4 µM.

What about the GI50 [26] of the same molecule?
The GI50 was 3.65 µM.

What about the TGI [26] of the same molecule?
Its TGI is > 100 µM.

What about the GI50 [27] of the same molecule?
Its GI50 is 4.92 µM.

And the TGI [27]?
The TGI was > 100 µM.

What about the GI50 [28] of the same molecule?
Its GI50 is 3.62 µM.

And the TGI [28]?
Its TGI is > 100 µM.

And the GI50 [29]?
Its GI50 is 2.94 µM.

And the TGI [29]?
Its TGI is 8.17 µM.

What about the GI50 [30] of the same molecule?
The GI50 was 3.15 µM.

And the TGI [30]?
Its TGI is 52.3 µM.

And the GI50 [31]?
Its GI50 is 3.48 µM.

And the TGI [31]?
Its TGI is > 100 µM.

And the GI50 [32]?
Its GI50 is 3.4 µM.

What about the TGI [32] of the same molecule?
Its TGI is 49.8 µM.

And the GI50 [33]?
The GI50 was 3.84 µM.

And the TGI [33]?
The TGI was > 100 µM.

And the GI50 [34]?
Its GI50 is 2.85 µM.

And the TGI [34]?
Its TGI is > 100 µM.

And the GI50 [35]?
The GI50 was 2.06 µM.

And the TGI [35]?
Its TGI is 7.48 µM.

What about the GI50 [36] of the same molecule?
Its GI50 is 2.73 µM.

And the TGI [36]?
Its TGI is 15.4 µM.

And the GI50 [37]?
The GI50 was 3.9 µM.

What about the TGI [37] of the same molecule?
Its TGI is > 100 µM.

What about the GI50 [38] of the same molecule?
Its GI50 is 2.94 µM.

What about the TGI [38] of the same molecule?
The TGI was > 100 µM.

And the GI50 [39]?
Its GI50 is 6 µM.

And the TGI [39]?
The TGI was > 100 µM.

What about the GI50 [40] of the same molecule?
Its GI50 is 3.41 µM.

What about the TGI [40] of the same molecule?
The TGI was 26.3 µM.

And the GI50 [41]?
Its GI50 is 6.03 µM.

And the TGI [41]?
Its TGI is 84.2 µM.

What about the GI50 [42] of the same molecule?
The GI50 was 5.74 µM.

And the TGI [42]?
The TGI was > 100 µM.

And the GI50 [43]?
The GI50 was 5.27 µM.

What about the TGI [43] of the same molecule?
Its TGI is > 100 µM.

And the GI50 [44]?
Its GI50 is 18.4 µM.

What about the TGI [44] of the same molecule?
The TGI was > 100 µM.

What about the GI50 [45] of the same molecule?
The GI50 was 4.56 µM.

And the TGI [45]?
The TGI was > 100 µM.

What about the GI50 [46] of the same molecule?
Its GI50 is 2.66 µM.

What about the TGI [46] of the same molecule?
The TGI was > 100 µM.

What about the GI50 [47] of the same molecule?
Its GI50 is 1.68 µM.

And the TGI [47]?
Its TGI is > 100 µM.

And the GI50 [48]?
Its GI50 is 3.72 µM.

What about the TGI [48] of the same molecule?
The TGI was > 100 µM.

And the GI50 [49]?
The GI50 was 3.6 µM.

What about the TGI [49] of the same molecule?
The TGI was > 100 µM.

What about the GI50 [50] of the same molecule?
Its GI50 is 4.8 µM.

What about the TGI [50] of the same molecule?
Its TGI is > 100 µM.

And the GI50 [51]?
The GI50 was 5.29 µM.

And the TGI [51]?
The TGI was > 100 µM.

And the GI50 [52]?
The GI50 was 3.36 µM.

What about the TGI [52] of the same molecule?
Its TGI is 15.5 µM.

And the GI50 [53]?
The GI50 was 7.22 µM.

What about the TGI [53] of the same molecule?
Its TGI is > 100 µM.

And the GI50 [54]?
Its GI50 is 3.13 µM.

And the TGI [54]?
The TGI was > 100 µM.

What about the GI50 [55] of the same molecule?
The GI50 was 3.74 µM.

And the TGI [55]?
Its TGI is > 100 µM.

What about the GI50 [56] of the same molecule?
The GI50 was 3.38 µM.

What about the TGI [56] of the same molecule?
The TGI was > 100 µM.

What about the GI50 [57] of the same molecule?
The GI50 was 2.45 µM.

And the TGI [57]?
The TGI was > 100 µM.

— PubChem BioAssay (NCI)
